Results taken from ChEMBL document CHEMBL3853264 (Medchemcomm, 2016).
pIC50: −log10 of the molar value.

Columns and labels:
[1] = molecular target: T1, Solute carrier family 22 member 12 (Homo sapiens, UniProt Q96S37); test: Inhibition of human C-terminal eGFP-tagged URAT1 long isoform expressed in CHO cells assessed as decrease in [14C]-uric acid uptake preincubated for 15 mins followed by [14C]-uric acid addition and incubated in dark for 3 hrs by scintillation counting method; type: cell-based
T1 sequence (Q96S37 whole entry): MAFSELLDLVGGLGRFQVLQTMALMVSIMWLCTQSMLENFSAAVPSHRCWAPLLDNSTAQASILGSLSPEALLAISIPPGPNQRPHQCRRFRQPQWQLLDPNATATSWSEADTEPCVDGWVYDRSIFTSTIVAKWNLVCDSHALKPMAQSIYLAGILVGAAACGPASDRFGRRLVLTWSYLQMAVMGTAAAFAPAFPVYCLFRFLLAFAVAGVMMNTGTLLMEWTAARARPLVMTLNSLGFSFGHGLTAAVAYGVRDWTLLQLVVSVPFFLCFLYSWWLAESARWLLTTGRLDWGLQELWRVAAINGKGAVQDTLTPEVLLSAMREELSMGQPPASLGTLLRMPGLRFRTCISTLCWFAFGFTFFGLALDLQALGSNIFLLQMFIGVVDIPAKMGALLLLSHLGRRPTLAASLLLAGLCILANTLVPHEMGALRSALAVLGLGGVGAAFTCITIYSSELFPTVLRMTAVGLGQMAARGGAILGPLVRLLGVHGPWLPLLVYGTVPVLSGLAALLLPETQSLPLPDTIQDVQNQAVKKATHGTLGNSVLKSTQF

[2] = Permeability in RRCK cells; type: ADME, cell-based, Canis lupus familiaris, MDCKII-LE; details: dog, MDCK; read-out: permeability
[3] = molecular target: Solute carrier organic anion transporter family member 1B1 (Homo sapiens, UniProt Q9Y6L6); test: Drug uptake assessed as human OATP1B1-mediated drug accumulation by cell-based assay relative to wild type protein; type: ADME
Cytochrome P450 3A4 = Cytochrome P450 3A4 (Homo sapiens, UniProt P08684); test: Inhibition of CYP3A4 (unknown origin); type: ADME
[4] = molecular target: Organic anion transporter 3 (Homo sapiens, UniProt Q8TCC7); test: Inhibition of OAT3 (unknown origin)
[5] = Intrinsic clearance in dog hepatocytes assessed per 10^6 cells; type: ADME, cell-based, Canis lupus familiaris, Hepatocyte; details: read-out: CLH
[6] = Unbound clearance in rat at 0.76 mg/kg, iv and 2.3 mg/kg, po; type: ADME, organism-based; details: in vivo
[7] = Renal clearance in rat; type: ADME; details: in vivo
[8] = Drug metabolism in rat assessed as loss of chlorobenzonitrile moiety in presence of glutathione; type: ADME
Canis familiaris = test: Hepatotoxicity in female dog assessed as decrease in alanine aminotransferase levels at >= 100 mg/kg/day, po measured over 14 days; type: toxicity, organism-based, Canis lupus familiaris; details: in vivo, 336 h
Rattus norvegicus = test: Cardiovascular toxicity in rat assessed as decrease in heart rate at 10 mg/kg, po measured over 14 days; type: organism-based; details: in vivo, 336 h
[9] = Average plasma concentration in rat at 30 mg/kg, po administered as single dose measured on day 14; type: ADME, organism-based; details: in vivo

Sequence of Cytochrome P450 3A4 (P08684 whole entry): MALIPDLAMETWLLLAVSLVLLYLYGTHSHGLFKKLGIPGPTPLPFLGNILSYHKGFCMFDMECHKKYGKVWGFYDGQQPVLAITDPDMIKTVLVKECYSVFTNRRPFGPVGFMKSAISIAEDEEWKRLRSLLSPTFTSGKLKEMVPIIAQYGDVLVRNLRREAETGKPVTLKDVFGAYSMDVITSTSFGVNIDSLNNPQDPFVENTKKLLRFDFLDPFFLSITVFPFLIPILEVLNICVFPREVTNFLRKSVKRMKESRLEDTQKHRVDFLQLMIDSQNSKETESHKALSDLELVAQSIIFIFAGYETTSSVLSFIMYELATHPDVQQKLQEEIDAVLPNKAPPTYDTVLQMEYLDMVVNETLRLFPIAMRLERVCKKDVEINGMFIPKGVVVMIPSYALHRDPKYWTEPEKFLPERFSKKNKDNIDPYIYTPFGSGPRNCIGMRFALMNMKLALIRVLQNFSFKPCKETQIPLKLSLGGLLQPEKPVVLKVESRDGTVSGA
Sequence of Organic anion transporter 3 (Q8TCC7 whole entry): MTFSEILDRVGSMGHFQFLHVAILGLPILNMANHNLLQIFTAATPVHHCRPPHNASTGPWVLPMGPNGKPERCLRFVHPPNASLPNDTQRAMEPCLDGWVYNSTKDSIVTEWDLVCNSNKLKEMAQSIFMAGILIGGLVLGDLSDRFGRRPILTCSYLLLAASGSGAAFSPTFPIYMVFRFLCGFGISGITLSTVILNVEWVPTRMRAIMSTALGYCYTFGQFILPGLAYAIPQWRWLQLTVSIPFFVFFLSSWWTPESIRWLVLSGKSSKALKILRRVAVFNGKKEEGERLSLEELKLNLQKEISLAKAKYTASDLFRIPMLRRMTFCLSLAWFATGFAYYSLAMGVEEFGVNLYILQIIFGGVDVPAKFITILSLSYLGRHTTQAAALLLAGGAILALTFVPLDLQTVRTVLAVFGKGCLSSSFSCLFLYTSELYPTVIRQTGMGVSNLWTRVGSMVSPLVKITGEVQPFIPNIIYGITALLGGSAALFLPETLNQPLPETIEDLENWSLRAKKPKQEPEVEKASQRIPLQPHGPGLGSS
Sequence of Solute carrier organic anion transporter family member 1B1 (Q9Y6L6 whole entry): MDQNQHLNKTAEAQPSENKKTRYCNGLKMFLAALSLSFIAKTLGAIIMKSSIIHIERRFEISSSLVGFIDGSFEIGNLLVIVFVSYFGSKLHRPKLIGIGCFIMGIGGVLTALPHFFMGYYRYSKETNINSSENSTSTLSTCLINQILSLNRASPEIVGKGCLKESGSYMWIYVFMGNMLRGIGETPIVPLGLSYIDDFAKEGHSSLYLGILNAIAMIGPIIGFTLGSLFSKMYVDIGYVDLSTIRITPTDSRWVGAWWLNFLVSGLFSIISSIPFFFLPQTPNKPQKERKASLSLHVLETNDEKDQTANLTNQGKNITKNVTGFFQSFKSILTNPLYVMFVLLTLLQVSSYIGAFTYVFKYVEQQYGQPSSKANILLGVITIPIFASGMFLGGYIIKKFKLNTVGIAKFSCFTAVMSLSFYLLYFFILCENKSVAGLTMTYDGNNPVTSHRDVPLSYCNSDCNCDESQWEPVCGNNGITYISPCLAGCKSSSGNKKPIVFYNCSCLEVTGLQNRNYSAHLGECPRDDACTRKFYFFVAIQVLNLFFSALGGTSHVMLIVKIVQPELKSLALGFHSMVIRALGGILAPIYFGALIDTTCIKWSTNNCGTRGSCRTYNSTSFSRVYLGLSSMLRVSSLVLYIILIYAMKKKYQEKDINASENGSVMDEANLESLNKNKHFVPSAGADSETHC

N#Cc1ccc(Oc2ccc(S(=O)(=O)Nc3ccc(F)cn3)cc2C#N)cc1Cl
pIC50 [1]: 7.92
Papp [2]: 16 ×10⁻⁶ cm/s
fold change (FC) [3]: 1.003
pIC50 (Cytochrome P450 3A4): 4.76
pIC50 [4]: 6.14
hepatocyte CLint [5]: < 6 µL/min/1e6 cells
CL free [6]: 330000 mL/day/kg
CL renal [7]: 0.144 mL/day/kg
Drug metabolism [8]: Metabolite_Notdetected
Activity (Canis familiaris): Toxic
Activity (Rattus norvegicus): Toxic
Cave [9]: 123 nM
